Test results from article PMC3002932 (PLoS ONE, 2010).
Read-outs that look alike come from different tables or passages of the source.

Key:
HIV-1 (BaL) = format: cell-based; details: TZM-bl assay; HIV-1 BaL (R5); 24 hr; luciferase activity
Protocol: The ability of the analogs to inhibit HIV infection was determined with an assay that determines viral infectivity with an LTR-mediated luciferase reporter construct [37]. In brief, TZM-bl reporter cells are HeLa-derived JC53-BL cells that express high levels of CD4, CXCR4, and CCR5. They also contain reporter cassettes for luciferase and β-galactosidase, both driven by the HIV-1 long terminal repeat [38]). 24 hr after these reporter cells were exposed to R5 lab-adapted strains of HIV-1 (BaL) in the presence of peptides, protection was measured as % reduction in luciferase activity (relative light units) compared to cells infected with virus and peptide vehicle alone.

CXCR4 (HIV-1IIIB) = assay: p24^gag antigen release assay using PBMCs, CXCR4 strain; format: cell-based; details: PBMC based p24^gag antigen release assay
CCR5 (HIV-1BAL) = assay: p24^gag antigen release assay using PBMCs, CCR5 strain; format: cell-based; details: PBMC based p24^gag antigen release assay
[1] = CD analysis of secondary structure; format: physicochemical; details: for disordered / turns / α-helix / β-sheet: Selcon
Protocol: Peptide was scanned at 20 nm per minute in a 0.01 cm path-length cell at 25°C with a sample interval of 0.2 nm. The peptide concentration was determined by UV absorbance at 280 nm. After baseline correction, spectra were expressed as the Mean Residue Ellipticity [θ]MRE. Quantitative estimates of secondary structural contributions were made with Selcon using the spectral basis set for proteins in the Olis Global Works™ software package (Olis Inc., Bogart, GA).

[2] = format: physicochemical; details: for Molecular weight range: 20 mM NaH2PO4, 20°C, 280 nm; for OD280 lost on centrifugation / weight-average molecular weight: 20 mM NaH2PO4
Protocol: Sedimentation equilibrium was performed at 20°C in a Beckman Optima XL-A analytical ultracentrifuge using absorption optics at 280 nm. Twelve mm path length double sector cells were used for all samples. Samples (OD280 = 0.7 and OD280 = 0.15)) were in 20 mM NaH2PO4. Sedimentation equilibrium profiles were measured at speeds of 3000, 7000, 11000, 24000 and 36000 rpm. The data were fitted with a nonlinear least-squares exponential fit for a single ideal species using the Beckman Origin-based software (Version 3.01 A partial specific volume of 0.739 was estimated from the amino acid composition using 0.9 (the partial specific volume of a leucine residue) for the partial specific volume of cyclohexylalanine and cyclohexylglycine. It was then corrected to 20°C [47].

[3] = NMR studies of oligomerization (data not shown); format: physicochemical; details: water, DMSO and their mixtures; limited NMR studies (data not shown)
[4] = 0.25 mM in 10 mM phosphate buffer pH = 6.5, 25°C
[5] = 0.5 mM in 10 mM phosphate buffer pH = 6.5, 25°C
[6] = 0.5 mM in HFIP:10 mM phosphate buffer pH = 6.5 (4∶6, v∶v), 25°C
[7] = 0.5 mM in TFE:10 mM phosphate buffer pH = 6.5 (4∶6, v∶v), 25°C

Cha-SC-Chg-R-Chg-RSGSY-Cha-DN-Chg-R-Chg-(D)Cys-CONH2 (disulfide) [GRFN-1]
EC50 (HIV-1 (BaL)): 191 ± 11 nM
antiviral activity (in words) (CXCR4 (HIV-1IIIB)): maintained their antiviral activity
antiviral activity (in words) (CCR5 (HIV-1BAL)): maintained their antiviral activity
disordered [1, 4]: 30.0%
turns [1, 4]: 21.0%
α-helix [1, 4]: 25.0%
β-sheet [1, 4]: 24.0%
disordered [1, 5]: 31.0%
turns [1, 5]: 21.0%
α-helix [1, 5]: 13.0%
β-sheet [1, 5]: 35.0%
disordered [1, 6]: 24.0%
turns [1, 6]: 16.0%
α-helix [1, 6]: 52.0%
β-sheet [1, 6]: 8.0%
disordered [1, 7]: 30.0%
turns [1, 7]: 23.0%
α-helix [1, 7]: 19.0%
β-sheet [1, 7]: 28.0%
secondary structure (in words) ([1]; 10 mM phosphate buffer, pH = 6.5, 250 µM): almost equal proportions of α-helix, β-sheet, turn and disordered conformations
secondary structure (in words) ([1]; 10 mM phosphate buffer, pH = 6.5, 500 µM vs 250 µM): β-sheet structure increases at the expense of α-helix
secondary structure (in words) ([1]; HFIP:buffer): dominant helical conformation
secondary structure (in words) ([1]; TFE:buffer): mix of α-helix, β-sheet, turns
concentration dependence of conformation ([1]; TFE:buffer and HFIP:buffer, 50 to 500 µM (data not shown)): not concentration dependent
Molecular weight range ([2]; 3K rpm (limited data)): ∼150000 Da
Molecular weight range ([2]; 7K rpm): 68500–84700 Da
Molecular weight range ([2]; 11K rpm): 8950–38100 Da
Molecular weight range ([2]; 24K rpm): 2541–6200 Da
Molecular weight range ([2]; 36K rpm): 2245–2940 Da
OD280 lost on centrifugation ([2]; 3000 rpm): less than 5%
weight-average molecular weight ([2]; 7000 rpm, remaining heterogeneous material): about 69000
OD280 lost on centrifugation ([2]; 7000 rpm): Approximately two-thirds
weight-average molecular weight ([2]; early scans, after 16 hours, 3000 rpm): about 150,000
turbidity ([2]; initially dissolved in 20 mM NaH2PO4): slightly turbid solution
aggregation state (in words) ([2]; sedimentation equilibrium, diluted salt): high molecular weight soluble aggregates with some monomer present
oligomerization (in words) [3]: Oligomerization of GRFN-1 in various solvents (water, DMSO and their mixtures) was suggested
